22 molecules from ChEMBL document CHEMBL1135926, “Structure-based design of novel potent nonpeptide thrombin inhibitors” (J Med Chem, 2002) can be followed below.

A value given as a limit tells only on which side of the number the result lay.

Sequence of Tissue-type plasminogen activator (P00750 whole entry): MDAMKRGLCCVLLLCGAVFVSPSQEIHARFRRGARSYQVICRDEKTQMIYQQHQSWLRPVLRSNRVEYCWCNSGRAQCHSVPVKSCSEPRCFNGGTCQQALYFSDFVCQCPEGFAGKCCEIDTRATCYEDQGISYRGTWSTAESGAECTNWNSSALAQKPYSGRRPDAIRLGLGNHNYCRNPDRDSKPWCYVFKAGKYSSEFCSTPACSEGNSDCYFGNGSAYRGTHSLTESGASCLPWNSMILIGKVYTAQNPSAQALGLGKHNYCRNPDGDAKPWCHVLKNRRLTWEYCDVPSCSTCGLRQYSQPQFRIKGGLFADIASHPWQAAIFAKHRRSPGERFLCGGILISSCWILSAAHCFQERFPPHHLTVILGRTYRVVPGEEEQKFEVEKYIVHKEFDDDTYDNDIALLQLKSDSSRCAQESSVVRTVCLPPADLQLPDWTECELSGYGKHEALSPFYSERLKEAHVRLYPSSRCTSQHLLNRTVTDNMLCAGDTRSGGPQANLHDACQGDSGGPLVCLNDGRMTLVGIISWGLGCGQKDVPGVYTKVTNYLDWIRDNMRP

In the first assay the target is Vitamin K-dependent protein C (Homo sapiens, UniProt P04070). Briefly: Inhibitory constant (Ki) was determined against human Activated protein C.
Sequence of Vitamin K-dependent protein C (P04070 43-197 limits assumed): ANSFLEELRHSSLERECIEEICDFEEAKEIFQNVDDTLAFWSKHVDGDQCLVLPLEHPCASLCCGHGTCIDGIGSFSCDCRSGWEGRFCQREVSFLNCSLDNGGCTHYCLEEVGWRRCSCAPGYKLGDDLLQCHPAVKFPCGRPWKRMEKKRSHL
Sequence of Vitamin K-dependent protein C (P04070 212-461 limits assumed): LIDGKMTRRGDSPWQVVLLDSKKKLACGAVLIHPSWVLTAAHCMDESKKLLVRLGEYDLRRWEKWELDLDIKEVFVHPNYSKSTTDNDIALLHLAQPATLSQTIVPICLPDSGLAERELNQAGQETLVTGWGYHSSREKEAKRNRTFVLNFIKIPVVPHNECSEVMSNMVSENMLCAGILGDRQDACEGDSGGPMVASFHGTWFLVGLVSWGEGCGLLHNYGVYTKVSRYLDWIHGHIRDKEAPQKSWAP
The molecule `Cn1c(CNc2ccc(C(=N)N)cc2)nc2cc(C(=O)N(CCC(=O)O)c3ccccn3)ccc21` [DABIGATRAN] registered a Ki of 20900 nM.

The target of a further assay is Prothrombin (Homo sapiens, UniProt P00734). Put plainly: Inhibition of human thrombin by chromogenic assay.
For the molecule `Cn1c(CNc2ccc(C(=N)N)cc2)nc2cc(N(CC(=O)O)S(=O)(=O)c3cccc4cccnc34)ccc21`, the midpoint of inhibition, the IC50, lay at 11 nM.

With `Cn1c(Cc2ccc(C(=N)N)cc2)nc2cc(NS(=O)(=O)c3ccc4ccccc4c3)ccc21`, the IC50 came out at 24000 nM.

The molecule `Cn1c(CCc2ccc(C(=N)N)cc2)nc2cc(C(=O)N(CC(=O)O)c3ccccc3)ccc21` yielded an IC50 of 54 nM.

As for `Cn1c(Cc2ccc(C(=N)N)cc2)nc2cc(N(CCCC(=O)O)S(=O)(=O)c3cccc4cccnc34)ccc21`, the midpoint of inhibition, the IC50, lay at 130 nM.

`Cn1c(Cc2ccc(C(=N)N)cc2)nc2cc(NS(=O)(=O)c3cccnc3)ccc21` showed an IC50 of 1600 nM.

Turning to `Cn1c(Cc2ccc(C(=N)N)cc2)nc2cc(NS(=O)(=O)c3cccc4ccccc34)ccc21`, the IC50 was found to be 600 nM.

The molecule `COc1ccc(OC)c(S(=O)(=O)Nc2ccc3c(c2)nc(Cc2ccc(C(=N)N)cc2)n3C)c1` displayed an IC50 of 1800 nM.

`Cn1c(CCc2ccc(C(=N)N)cc2)nc2cc(N(CC(=O)O)S(=O)(=O)c3cccc4cccnc34)ccc21` had an IC50 of 32 nM.

In the case of `Cn1c(Cc2ccc(C(=N)N)cc2)nc2cc(NS(=O)(=O)c3cccc4cccnc34)ccc21`, the IC50 was found to be 260 nM.

For the molecule `Cn1c(Cc2ccc(C(=N)N)cc2)nc2cc(N(CC(=O)O)S(=O)(=O)c3cccc4cccnc34)ccc21`, inhibition was half-maximal at 120 nM (IC50).

On to `CCCn1c(Cc2ccc(C(=N)N)cc2)nc2cc(NS(=O)(=O)c3ccccc3)ccc21`, for which half-maximal inhibition (IC50) was put at 4000 nM.

For `Cn1c(CNc2ccc(C(=N)N)cc2)nc2cc(C(=O)N(CCC(=O)O)c3ccccc3)ccc21`, 5.4 nM corresponded to half-maximal inhibition (IC50).

As for `Cn1c(Cc2ccc(C(=N)N)cc2)nc2cc(NS(=O)(=O)c3cc(C(F)(F)F)cc(C(F)(F)F)c3)ccc21`, the IC50 is over 100000 nM.

`CCn1c(Cc2ccc(C(=N)N)cc2)nc2cc(NS(=O)(=O)c3ccccc3)ccc21` registered an IC50 of 2400 nM.

Regarding `Cn1c(CNc2ccc(C(=N)N)cc2)nc2cc(C(=O)N(CC(=O)O)c3ccccc3)ccc21`, the IC50 was 10 nM.

`N=C(N)c1ccc(Cc2nc3cc(NS(=O)(=O)c4ccccc4)ccc3[nH]2)cc1` yielded an IC50 of 19000 nM.

`Cn1c(COc2ccc(C(=N)N)cc2)nc2cc(C(=O)N(CC(=O)O)c3ccccc3)ccc21` had an IC50 of 330 nM.

Take `Cn1c(CNc2ccc(C(=N)N)cc2)nc2cc(C(=O)N(CCCC(=O)O)c3ccccc3)ccc21`: the IC50 came out at 10 nM.

`CN(c1ccc2c(c1)nc(Cc1ccc(C(=N)N)cc1)n2C)S(=O)(=O)c1ccccc1` registered an IC50 of 1300 nM.

For the molecule `Cn1c(Cc2ccc(C(=N)N)cc2)nc2cc(NS(=O)(=O)c3cccc4cnccc34)ccc21`, the IC50 worked out at 510 nM.

Regarding `Cn1c(COc2ccc(C(=N)N)cc2)nc2cc(N(CC(=O)O)S(=O)(=O)c3cccc4cccnc34)ccc21`, the IC50 turned out to be 58 nM.

A further assay concerns the target Trypsin (Homo sapiens, UniProt P07477+P07478+P35030). Put plainly: Inhibitory constant (Ki) was determined against human trypsin. It is filed as protein assay.
For the molecule `Cn1c(CNc2ccc(C(=N)N)cc2)nc2cc(C(=O)N(CCC(=O)O)c3ccccn3)ccc21` [DABIGATRAN], the Ki was determined as 50.3 nM.

The next assay is filed under the species Homo sapiens. Put plainly: Effective dose was determined against human plasma using PTT reagent. The assay is classed as functional.
With `Cn1c(CNc2ccc(C(=N)N)cc2)nc2cc(C(=O)N(CCC(=O)O)c3ccccn3)ccc21` [DABIGATRAN], the ED2 is 0.23 µM.

Another assay deals with Plasminogen (Homo sapiens, UniProt P00747). Briefly: Inhibitory constant (Ki) was determined against human plasmin.
Sequence of Plasminogen (P00747 97-580 limits assumed): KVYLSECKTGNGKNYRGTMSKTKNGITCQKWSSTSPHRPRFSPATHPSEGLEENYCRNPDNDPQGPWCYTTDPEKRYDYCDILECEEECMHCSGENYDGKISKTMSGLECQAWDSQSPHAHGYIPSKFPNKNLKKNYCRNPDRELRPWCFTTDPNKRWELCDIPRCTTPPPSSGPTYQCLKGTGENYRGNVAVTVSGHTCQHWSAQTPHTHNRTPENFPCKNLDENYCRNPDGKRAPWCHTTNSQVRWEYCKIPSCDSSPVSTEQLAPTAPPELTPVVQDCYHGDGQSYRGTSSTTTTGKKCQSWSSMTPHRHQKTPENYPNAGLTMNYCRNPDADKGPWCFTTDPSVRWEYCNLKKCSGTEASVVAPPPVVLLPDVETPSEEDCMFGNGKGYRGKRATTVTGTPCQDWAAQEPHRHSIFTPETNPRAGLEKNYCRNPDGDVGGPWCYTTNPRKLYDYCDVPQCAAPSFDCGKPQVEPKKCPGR
Sequence of Plasminogen (P00747 581-810 limits assumed): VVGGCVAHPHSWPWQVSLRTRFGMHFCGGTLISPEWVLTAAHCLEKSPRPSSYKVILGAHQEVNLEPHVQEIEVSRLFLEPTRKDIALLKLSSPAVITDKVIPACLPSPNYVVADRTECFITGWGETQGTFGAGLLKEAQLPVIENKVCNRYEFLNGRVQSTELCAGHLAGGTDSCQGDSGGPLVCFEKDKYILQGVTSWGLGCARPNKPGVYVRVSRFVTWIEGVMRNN
In turn, `Cn1c(CNc2ccc(C(=N)N)cc2)nc2cc(C(=O)N(CCC(=O)O)c3ccccn3)ccc21` [DABIGATRAN] had a Ki of 1690 nM.

Another assay has as its target Tissue-type plasminogen activator (Homo sapiens, UniProt P00750). Briefly: Inhibitory constant (Ki) was determined against human Tissue plasminogen activator (tissue plasminogen activator).
Take `Cn1c(CNc2ccc(C(=N)N)cc2)nc2cc(C(=O)N(CCC(=O)O)c3ccccn3)ccc21` [DABIGATRAN]: the affinity, expressed as Ki, was 45400 nM.

One may read the Ki as a measure of affinity in units of concentration, obtained from inhibition or displacement. For orientation: IC50 means the concentration that gives 50% inhibition. Lower therefore signals greater potency.
